Some test systems named below: SF-268 CNS; U251 CNS; HOP-92 NSCLC; MDA-MB-435; HCT-15 colon; SNB-75 CNS; M14 melanoma; A498 renal; CAKI-1 renal; HS 578T breast; SK-MEL-5 melanoma; LOX IMVI melanoma; UACC-257 melanoma; 786-0 renal; BT-549 breast; OVCAR-4 ovarian; A549 NSCLC; HOP-62 NSCLC; SR leukemia.
Holding throughout (experiment): NCI-60 cell line screen, 48 h

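Method: 48-hour compound exposure of cells in 96-well plates, five concentrations, linear interpolation of endpoints. TGI: total growth inhibition.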

As for `COC(=O)c1ccc(NCc2c(O)ccc(O)c2Br)cc1Cl`, the TGI worked out at 41.2 µM in the test on SF-268 CNS; 30.4 µM in the test with U251 CNS; 28.4 µM in the test on HOP-92 NSCLC; 26.5 µM in the test with MDA-MB-435; 35.9 µM with HCT-15 colon; 70.2 µM in the test with SNB-75 CNS. Also, the TGI is 33.3 µM in the test on M14 melanoma; over 100 µM in the test on A498 renal; 29.9 µM in the test on CAKI-1 renal; 95.4 µM in the test with HS 578T breast; 34.6 µM in the test on SK-MEL-5 melanoma; 27.3 µM in the test with LOX IMVI melanoma. Also, the TGI is 83.8 µM with UACC-257 melanoma; 32.6 µM in the test with 786-0 renal; 24.7 µM in the test with BT-549 breast; 44.2 µM in the test with OVCAR-4 ovarian; over 100 µM in the test with A549 NSCLC.

For the compound `C[n+]1c2ccccc2n2c3ccccc3c(NCCc3ccccn3)c(C#N)c21`, the TGI in the test with SF-268 CNS is over 22.4 µM; in the test on U251 CNS it was 12.7 µM; in the test with HOP-92 NSCLC, over 100 µM; with HOP-62 NSCLC it was 11.8 µM; in the test on MDA-MB-435 it was 4 µM; with HCT-15 colon, 17.4 µM. The TGI came out at 5.22 µM in the test on SNB-75 CNS; 6.56 µM with M14 melanoma; 14 µM with A498 renal; 6.68 µM in the test with CAKI-1 renal; 12.1 µM in the test with HS 578T breast; 3.41 µM in the test with LOX IMVI melanoma. Moreover, the TGI was 16.6 µM in the test on UACC-257 melanoma; 7.58 µM with 786-0 renal; over 23.3 µM with BT-549 breast; 5.93 µM with OVCAR-4 ovarian; 50.1 µM in the test on A549 NSCLC.

In the case of `COc1cc(OC)c2c(=O)c(OC)c(-c3ccc4c(c3)OCO4)oc2c1OC`, the TGI was over 100 µM in the test with SF-268 CNS; over 100 µM with U251 CNS; 90.9 µM with HOP-92 NSCLC; over 100 µM in the test on HOP-62 NSCLC; over 100 µM with MDA-MB-435; over 100 µM in the test on HCT-15 colon. Moreover, the TGI with SNB-75 CNS is over 100 µM; with M14 melanoma, over 100 µM; in the test with A498 renal, over 100 µM; with CAKI-1 renal, over 100 µM; in the test on HS 578T breast, over 100 µM; in the test with SK-MEL-5 melanoma it was 89.8 µM. Besides, the TGI in the test with LOX IMVI melanoma, in the test with UACC-257 melanoma, in the test on 786-0 renal, in the test with BT-549 breast and in the test on A549 NSCLC was over 100 µM each time.

Take `O=c1cc(N2CCCC2)[nH]c(=O)n1-c1ccc(F)cc1`: the TGI in the test on SF-268 CNS, with U251 CNS, in the test on HOP-92 NSCLC, in the test on HOP-62 NSCLC, with MDA-MB-435 and with HCT-15 colon was over 100 µM each time. For the same compound, the TGI in the test on SNB-75 CNS, with M14 melanoma, in the test on A498 renal, in the test on CAKI-1 renal, in the test with HS 578T breast and with LOX IMVI melanoma was over 100 µM each time. Besides, the TGI in the test with UACC-257 melanoma, with 786-0 renal, in the test on BT-549 breast, in the test with OVCAR-4 ovarian and in the test on A549 NSCLC was over 100 µM in each case.

As to `NNC1=N/C(=C\c2ccco2)C(=O)N1`, the TGI in the test with U251 CNS, in the test with HOP-62 NSCLC, in the test on MDA-MB-435, in the test with HCT-15 colon, in the test on SNB-75 CNS and in the test on M14 melanoma was over 100 µM each time. The TGI in the test with A498 renal, with CAKI-1 renal, with SK-MEL-5 melanoma, with LOX IMVI melanoma, in the test with SR leukemia and in the test on UACC-257 melanoma was over 100 µM in each case. Further, the TGI in the test with 786-0 renal, with BT-549 breast, in the test with OVCAR-4 ovarian and in the test on A549 NSCLC was over 100 µM throughout.

In the case of `CCOC(=O)CSc1nnc(CSc2nc(-c3ccccc3)c(-c3ccccc3)[nH]2)n1-c1ccccc1`, the TGI with SF-268 CNS was over 81.3 µM; in the test on U251 CNS, over 100 µM; in the test with HOP-92 NSCLC, over 100 µM; in the test with HOP-62 NSCLC, over 100 µM; with HCT-15 colon, over 100 µM; with SNB-75 CNS, over 100 µM. Also, the TGI in the test on M14 melanoma was over 62.4 µM; in the test with A498 renal, 33.2 µM; in the test with SK-MEL-5 melanoma it was over 100 µM; with LOX IMVI melanoma it was over 100 µM; in the test with SR leukemia, over 100 µM; in the test with UACC-257 melanoma, over 67.4 µM. Also, the TGI was over 62.9 µM in the test on 786-0 renal, over 100 µM with BT-549 breast, 48.3 µM in the test on OVCAR-4 ovarian and over 100 µM in the test on A549 NSCLC.

Turning to `COC(=O)C1(C(=O)OC)N=C(C)OC1c1ccccn1` (stereo not given), the TGI with U251 CNS, in the test on HOP-92 NSCLC, in the test on HOP-62 NSCLC, in the test with MDA-MB-435, in the test on HCT-15 colon and with SNB-75 CNS was over 100 µM each time. The TGI in the test with M14 melanoma, in the test on A498 renal, with CAKI-1 renal, in the test with SK-MEL-5 melanoma, in the test on LOX IMVI melanoma and in the test with SR leukemia was over 100 µM in each case. The TGI in the test on UACC-257 melanoma, in the test with 786-0 renal, in the test with BT-549 breast, with OVCAR-4 ovarian and in the test on A549 NSCLC was over 100 µM in each case.

With `CC(C)(C)CNC(=O)NCn1cc(-c2ccccc2)nn1`, the TGI in the test on SF-268 CNS, with U251 CNS, in the test on HOP-92 NSCLC, in the test with HOP-62 NSCLC, with HCT-15 colon and with M14 melanoma was over 100 µM throughout. Besides, the TGI with CAKI-1 renal, with SK-MEL-5 melanoma, with LOX IMVI melanoma, in the test on SR leukemia, with UACC-257 melanoma and with 786-0 renal was over 100 µM each time. The TGI with BT-549 breast and with A549 NSCLC was over 100 µM in each case.

On to `COC1(OC)N=C(N)C2(C#N)C3(C(=O)N(C(C)C)N=C3C)C12C#N` (stereo not given), for which the TGI in the test with SF-268 CNS, in the test on U251 CNS, with HOP-92 NSCLC, in the test on HOP-62 NSCLC, with MDA-MB-435 and in the test on HCT-15 colon was over 100 µM throughout. The TGI in the test with SNB-75 CNS, in the test with M14 melanoma, in the test with A498 renal, in the test on CAKI-1 renal, with SR leukemia and with UACC-257 melanoma was over 100 µM throughout. Further, the TGI in the test on 786-0 renal, with BT-549 breast, in the test on OVCAR-4 ovarian and in the test on A549 NSCLC was over 100 µM throughout.

With `O=c1c2ccccc2nc2n1C(c1ccc([N+](=O)[O-])cc1)C2(c1ccccc1)c1ccccc1` (stereo not given), the TGI in the test with SF-268 CNS, in the test with U251 CNS, with HOP-92 NSCLC, with HOP-62 NSCLC, with MDA-MB-435 and in the test on HCT-15 colon was over 100 µM each time. Further, the TGI in the test with M14 melanoma, in the test with A498 renal, in the test on CAKI-1 renal, in the test with HS 578T breast, in the test with SK-MEL-5 melanoma and in the test on LOX IMVI melanoma was over 100 µM each time. Further, the TGI with UACC-257 melanoma, in the test on 786-0 renal, with BT-549 breast, in the test with OVCAR-4 ovarian and in the test with A549 NSCLC was over 100 µM in each case.

With `CC1(C)OCC(C2OC(OC(=O)c3ccc([N+](=O)[O-])cc3)C3OC(C)(C)OC23)O1` (stereo not given), the TGI with SF-268 CNS was over 100 µM; with U251 CNS, over 100 µM; in the test with HOP-62 NSCLC, over 100 µM; with MDA-MB-435 it was over 100 µM; with HCT-15 colon it was over 100 µM; in the test on SNB-75 CNS it was 54.3 µM. The TGI in the test with M14 melanoma, in the test on A498 renal, in the test with CAKI-1 renal, in the test on SK-MEL-5 melanoma, in the test on LOX IMVI melanoma and in the test with SR leukemia was over 100 µM throughout. In addition, the TGI in the test with UACC-257 melanoma, with 786-0 renal, in the test on BT-549 breast, in the test with OVCAR-4 ovarian and in the test with A549 NSCLC was over 100 µM each time.

Take `COc1cc2c(cc1OC)CN1CCCc3cc(OC)c(OC)cc3C1C2` (stereo not given): the TGI with SF-268 CNS was over 100 µM; with U251 CNS it was over 100 µM; with HOP-92 NSCLC it was over 100 µM; with HOP-62 NSCLC it was over 100 µM; with MDA-MB-435 it was 47.5 µM; with HCT-15 colon, over 100 µM. Moreover, the TGI with SNB-75 CNS was 52 µM; with M14 melanoma, over 100 µM; in the test on CAKI-1 renal, over 100 µM; in the test on HS 578T breast, over 100 µM; in the test on SK-MEL-5 melanoma, over 100 µM; with LOX IMVI melanoma, over 100 µM. Further, the TGI in the test with UACC-257 melanoma, with 786-0 renal, in the test on BT-549 breast, with OVCAR-4 ovarian and in the test on A549 NSCLC was over 100 µM throughout.

As for `N#CCCN(CCC#N)c1ccc(C(N=Nc2ccccc2)=Nc2ccc(Cl)cc2)cc1`, the TGI with SF-268 CNS, with U251 CNS, with HOP-92 NSCLC, in the test on HOP-62 NSCLC, in the test with MDA-MB-435 and in the test with HCT-15 colon was over 100 µM throughout. For the same compound, the TGI in the test on SNB-75 CNS, in the test on M14 melanoma, in the test on A498 renal, in the test on CAKI-1 renal, in the test with HS 578T breast and in the test on SK-MEL-5 melanoma was over 100 µM in each case. For the same compound, the TGI in the test with UACC-257 melanoma, in the test with 786-0 renal, in the test on BT-549 breast, in the test on OVCAR-4 ovarian and with A549 NSCLC was over 100 µM throughout.
